Reference: US8753666B2, “Punctal plugs and methods of delivering therapeutic agents” (Alcon Research, Ltd., priority 2007, dated 2014)

Assay: Release of AL-6598 from silicone dies of three sizes in PBS at 37° C.
Type: physicochemical
Conditions: silicone die containing 10% AL-6598, 10x10x1 mm, 10x5x1 mm and 5x5x1 mm, FIG. 8
Protocol: To study the effect of surface area on the release of prostaglandin from a silicone matrix, prostaglandin release from silicone dies of three different sizes was measured. The largest silicone die measured 10 mm×10 mm×1 mm. A ½ size device (10 mm×5 mm×1 mm) and a ¼ size device (5 mm×5 mm×1 mm) were also used in this study. Each silicone die contained 10% AL-6598, which is a DP class prostaglandin analogue. The silicone die were placed in phosphate buffered saline (PBS) at 37° C. and the amount of AL-6598 released was measured.

## CC(C)OC(=O)COC/C=C\C[C@@H]1[C@@H](CC[C@@H](O)C2CCCCC2)[C@H](O)C[C@H]1Cl [AL-6598]
  release of AL-6598 from silicone die (effect of surface area): dependent on the size of the silicone die with the larger surface area resulting in the more rapid drug release
